Reference: patent US10861154B2, “Cell analysis system, cell analysis program and cell analysis method” (Sony Corporation, priority 2013, dated 2020)

Key:
Assay type in all cases: cell-based
[1] = test system: iPS cell-derived neural cells “iCell Neuron”; assay: Motion amount of iCell Neuron after adding ionotropic receptor antagonists (Example 2); conditions: 5 μM, FIGS. 9 and 10
Protocol: (§1) On the microscope having the chamber, iPS cell-derived neural cells “iCell Neuron” (produced by Cellular Dynamics International, Inc.) and rat cerebral cortex primary culture (produced by Lonza, Inc.) were each set. Video images of the cells, of 260 frames at object lens magnification 20× and at 7.5 fps (for iCell Neuron) or 5 fps (for rat cerebral cortex primary culture), were taken and were obtained as cell images. A variety of ionotropic receptor antagonists were added to each of the cell cultures. The ionotropic receptor antagonist was Bicuculline which is GABA (gamma-aminobutyrate) receptor antagonist; or CNQX (6-cyano-7-nitroquinoxaline-2,3-dione) which is non-NMDA Glu (glutamate) receptor antagonist.
(§2) The cell image was analyzed with the use of the above-described cell analysis system. Specifically, the motion information was extracted by block matching, using each of the neural cells in the cell image as the extraction range, and the motion amount was calculated from the motion information. FIGS. 9 to 12 are graphs showing results of the calculation of the motion amount. […] Note that the motion amounts shown in the respective figures are average values of the calculated motion amounts for a plurality of detail parts of nerves. […]

[2] = test system: rat cerebral cortex primary culture; assay: Motion amount of rat cerebral cortex primary culture after adding ionotropic receptor antagonists (Example 2)
Protocol: as §1, §2

[3] = test system: rat cerebral cortex primary culture; assay: Motion amount of rat cerebral cortex primary culture on change in osmotic pressure by galactose (Example 3); conditions: galactose at a final concentration of 2.5%, compared with no galactose, FIG. 14
Protocol: On the microscope having the chamber, rat cerebral cortex primary culture (produced by Lonza, Inc.) was set. A video image of the cells, of 260 frames at object lens magnification 20× and at 5 fps, was taken and was obtained as a cell image. To the cell culture, galactose at a final concentration of 2.5% was added. The cell image was analyzed with the use of the above-described cell analysis system. Specifically, the motion information was extracted by block matching, using each of the neural cells in the cell image as the extraction range, and the motion amount was calculated from the motion information.

[4] = test system: rat cerebral cortex primary culture; assay: Motion amount of rat cerebral cortex primary culture after adding aquaporin inhibitor (Example 3); conditions: 5 μm of HgCl2, FIG. 15
Protocol: Further, on the microscope having the chamber, rat cerebral cortex primary culture (produced by Lonza, Inc.) was set. A video image of the cells, of 260 frames at object lens magnification 20× and at 7.5 fps (for iCell Neuron) or 5 fps (for rat cerebral cortex primary culture), was taken and was obtained as a cell image. To the cell culture, […] of HgCl2 as aquaporin inhibitor was added.
The cell image was analyzed with the use of the above-described cell analysis system. Specifically, the motion information was extracted by block matching, using each of the neural cells in the cell image as the extraction range, and the motion amount was calculated from the motion information. FIG. 15 is a graph showing a result of the calculation of the motion amount. In the figure, “0 min” in the abscissa is the time of the addition of the […], and the ordinate indicates a relative motion amount when the value before adding HgCl2 (at 0 min) is assumed to be 1.

metabolism of the cell = assay: Effect on metabolism of the cell; conditions: 5 μm of HgCl2

N#Cc1cc2c(cc1[N+](=O)[O-])=NC(=O)C(=O)N=2 [CNQX, 6-cyano-7-nitroquinoxaline-2,3-dione]
relative motion amount after adding the ionotropic receptor antagonist, value at 0 min = 1 [1]: transiently reduced | relative motion amount after adding the ionotropic receptor antagonist, value at 0 min = 1 ([2]; 5 μM, FIGS. 11 and 12): decreased | motion amount for each individual cell ([2]; 5 μm of CNQX, FIG. 13): the cells in which the motion amount was decreased by an influence of the Glu receptor antagonist and the cells in which the motion amount was not decreased

O=C[C@H](O)[C@@H](O)[C@@H](O)[C@H](O)CO [galactose]
median value of the motion amounts for the extraction ranges [3]: almost completely reduced

[Cl][Hg][Cl] [HgCl2]
relative motion amount after adding HgCl2, value at 0 min = 1 [4]: transiently reduced | inhibition of metabolism of the cell (metabolism of the cell): does not inhibit metabolism of the cell
